This note sets out measurements from ChEMBL document CHEMBL4184204, “Fusarithioamide B, a new benzamide derivative from the endophytic fungus Fusarium chlamydosporium with potent cytotoxic and antimicrobial activities” (Bioorg Med Chem, 2018).

The test system of assay [1] is MCF7. Put plainly: Cytotoxicity against human MCF7 cells after 48 hrs by neutral red dye based assay. The format is functional, cell-based. The conditions noted are these: MCF7, 48 h.
Assay [2] relates to BT-549. The experiment in a line: Cytotoxicity against human BT549 cells after 48 hrs by neutral red dye based assay. The conditions noted are these: BT-549, 48 h. It is filed as functional, cell-based.
The test system of assay [3] is Escherichia coli. The experiment in a line: Antibacterial activity against Escherichia coli AUMC B-53 by microdilution method. The format is functional. (Broth dilution looks for growth in wells or tubes with falling amounts of substance.)
In assay [4] the test system is Geotrichum candidum. The experiment in a line: Antifungal activity against Geotrichum candidum AUMC 226 by microdilution method. The format is functional.
Assay [5] relates to Bacillus cereus. The experiment in a line: Antibacterial activity against Bacillus cereus AUMC B-5 assessed as diameter of inhibition zone after 24 hrs by agar disc diffusion method. It is filed as functional. In general terms: Agar diffusion results depend on both activity and mobility in agar.
Assay [6] has as its system Escherichia coli. Put plainly: Antibacterial activity against Escherichia coli AUMC B-53 assessed as diameter of inhibition zone after 24 hrs by agar disc diffusion method. It is filed as functional.
Assay [7] deals with SK-MEL. Put plainly: Cytotoxicity against human SK-MEL cells after 48 hrs by neutral red dye based assay. It is filed as functional, cell-based.
In assay [8] the test system is Candida albicans. Put plainly: Antifungal activity against Candida albicans AUMC 418 by microdilution method. The format is functional.
Assay [9] concerns Trichophyton rubrum. Put plainly: Antifungal activity against Trichophyton rubrum AUMC 1804 by microdilution method. It is filed as functional.
Assay [10] relates to Staphylococcus aureus. Put plainly: Antibacterial activity against Staphylococcus aureus AUMC B-54 assessed as diameter of inhibition zone after 24 hrs by agar disc diffusion method. It is filed as functional.
Assay [11] has as its system Pseudomonas aeruginosa. Put plainly: Antibacterial activity against Pseudomonas aeruginosa AUMC B-73 assessed as diameter of inhibition zone after 24 hrs by agar disc diffusion method. It is filed as functional.
Assay [12] deals with Candida albicans. Put plainly: Antifungal activity against Candida albicans AUMC 418 assessed as diameter of inhibition zone after 48 hrs by agar disc diffusion method. It is filed as functional.
In assay [13] the test system is Geotrichum candidum. Put plainly: Antifungal activity against Geotrichum candidum AUMC 226 assessed as diameter of inhibition zone after 48 hrs by agar disc diffusion method. It is filed as functional.
The subject of assay [14] is Bacillus cereus. The experiment in a line: Antibacterial activity against Bacillus cereus AUMC B-5 by microdilution method. The format is functional.
Assay [15] concerns KB. The experiment in a line: Cytotoxicity against human KB cells after 48 hrs by neutral red dye based assay. It is filed as functional, cell-based.
For assay [16], the system named is HCT-116. Put plainly: Cytotoxicity against human HCT116 cells after 48 hrs by neutral red dye based assay. The format is functional, cell-based. The note with it: HCT-116, 48 h.
Assay [17] concerns Pseudomonas aeruginosa. Put plainly: Antibacterial activity against Pseudomonas aeruginosa AUMC B-73 by microdilution method. The format is functional.
For assay [18], the system named is Serratia marcescens. Put plainly: Antibacterial activity against Serratia marcescens AUMC B-55 assessed as diameter of inhibition zone after 24 hrs by agar disc diffusion method. It is filed as functional.
Assay [19] has as its system SK-OV-3. The experiment in a line: Cytotoxicity against human SKOV3 cells after 48 hrs by neutral red dye based assay. It is filed as functional, cell-based. The conditions noted are these: SK-OV-3, 48 h.
In assay [20] the test system is Serratia marcescens. Put plainly: Antibacterial activity against Serratia marcescens AUMC B-55 by microdilution method. It is filed as functional.
In assay [21] the test system is Trichophyton rubrum. Put plainly: Antifungal activity against Trichophyton rubrum AUMC 1804 assessed as diameter of inhibition zone after 48 hrs by agar disc diffusion method. The format is functional.
For assay [22], the system named is Staphylococcus aureus. Put plainly: Antibacterial activity against Staphylococcus aureus AUMC B-54 by microdilution method. It is filed as functional.
The test system of assay [23] is Bacillus cereus. The experiment in a line: Antibacterial activity against Bacillus cereus AUMC B-5 assessed as diameter of inhibition zone at 10 ug/disc after 24 hrs by agar disc diffusion method. The format is functional. The note with it: AUMC B-5, 24 h, read-out: DIZ.
The test system of assay [24] is Staphylococcus aureus. The experiment in a line: Antibacterial activity against Staphylococcus aureus AUMC B-54 assessed as diameter of inhibition zone at 10 ug/disc after 24 hrs by agar disc diffusion method. The conditions noted are these: AUMC B-54, 24 h, read-out: DIZ.
For assay [25], the system named is Serratia marcescens. The experiment in a line: Antibacterial activity against Serratia marcescens AUMC B-55 assessed as diameter of inhibition zone at 10 ug/disc after 24 hrs by agar disc diffusion method. The note with it: AUMC B-55, 24 h, read-out: DIZ. It is filed as functional.
Assay [26] has as its system Pseudomonas aeruginosa. The experiment in a line: Antibacterial activity against Pseudomonas aeruginosa AUMC B-73 assessed as diameter of inhibition zone at 10 ug/disc after 24 hrs by agar disc diffusion method. The conditions noted are these: AUMC B-73, 24 h, read-out: DIZ.
Assay [27] concerns Escherichia coli. The experiment in a line: Antibacterial activity against Escherichia coli AUMC B-53 assessed as diameter of inhibition zone at 10 ug/disc after 24 hrs by agar disc diffusion method. The note with it: AUMC B-53, 24 h, read-out: DIZ.
Assay [28] deals with Candida albicans. The experiment in a line: Antifungal activity against Candida albicans AUMC 418 assessed as diameter of inhibition zone at 5 ug/disc after 48 hrs by agar disc diffusion method. It is filed as functional. The conditions noted are these: AUMC 418, 48 h, read-out: DIZ.
Assay [29] deals with Geotrichum candidum. The experiment in a line: Antifungal activity against Geotrichum candidum AUMC 226 assessed as diameter of inhibition zone at 5 ug/disc after 48 hrs by agar disc diffusion method. The note with it: AUMC 226, 48 h, read-out: DIZ. The format is functional.
For assay [30], the system named is Trichophyton rubrum. Put plainly: Antifungal activity against Trichophyton rubrum AUMC 1804 assessed as diameter of inhibition zone at 5 ug/disc after 48 hrs by agar disc diffusion method. It is filed as functional. The note with it: AUMC 1804, 48 h, read-out: DIZ.

Converted amounts (≈) assume the structure as drawn.

In the case of `CC1NC(=O)C(C)(CC(=O)O)NC(CN)OC(CCS)NC(=O)c2ccccc2NC1=O` (stereo not given), the IC50 (commonly the concentration at which inhibition is half-maximal) in [1] came to 210 nM; in assay [2], 90 nM; in assay [7], 11200 nM; in [15], 6900 nM; in assay [16] it was 590 nM; in assay [19], 1230 nM. Besides, the MIC – broadly, the lowest concentration found to suppress growth – in [3] is 3.7 µg/mL (≈ 7.91 µM); in assay [4], 6.9 µg/mL (≈ 14.8 µM); in assay [8], 1.9 µg/mL (≈ 4.06 µM); in [9], 5.2 µg/mL (≈ 11.1 µM); in [14], 2.5 µg/mL (≈ 5.35 µM); in [17], 68.4 µg/mL (≈ 146 µM). Moreover, the MIC in [20] came to 92.1 µg/mL (≈ 197 µM); in assay [22], 3.1 µg/mL (≈ 6.63 µM). For the same compound, the “diameter of the inhibition zone (DIZ)” value in [5] is given as 23 mm; in assay [6] it was 25.1 mm; in assay [10], 17.4 mm; in [11], 7.2 mm; in assay [12], 14.5 mm; in assay [13] it was 28.9 mm. Besides, the “diameter of the inhibition zone (DIZ)” value in assay [18] stood at 4.5 mm; in assay [21], 40.3 mm.

For the compound `O=C(O)c1cn(C2CC2)c2cc(N3CCNCC3)c(F)cc2c1=O` [CIPROFLOXACIN], the zone of inhibition at 10 µg/disc was found to be 21.2 mm in assay [23]; 15.3 mm in [24]; 30.1 mm in assay [25]; 14.8 mm in [26]; 25.6 mm in [27]. The values for the MIC in assay [14] and in assay [20] were 2.9 µg/mL (≈ 8.75 µM) and 9.1 µg/mL (≈ 27.5 µM), respectively.

Regarding `Clc1ccccc1C(c1ccccc1)(c1ccccc1)n1ccnc1` [CLOTRIMAZOLE], the MIC in assay [4] amounted to 4.9 µg/mL (≈ 14.2 µM); in [8] it was 2.8 µg/mL (≈ 8.12 µM); in [9] it was 8.1 µg/mL (≈ 23.5 µM). Also, the zone of inhibition at 5 µg/disc was 17.9 mm in [28], 20.1 mm in [29] and 15.5 mm in assay [30].

On to `COc1cccc2c1C(=O)c1c(O)c3c(c(O)c1C2=O)C[C@@](O)(C(=O)CO)C[C@@H]3O[C@H]1C[C@H](N)[C@H](O)[C@H](C)O1` [DOXORUBICIN], for which the IC50 in assay [2] worked out at 45 nM; in [7] it was 159 nM; in assay [15] it was 24 nM; in assay [16], 240 nM; in assay [19], 321 nM.
